According to paper PMC13100289 (The Journal of Biological Chemistry, 2026):

Target: T1, Neutral endopeptidase (neprilysin) (Homo sapiens, UniProt P08473)
T1 construct: purchased; host or cells: CHO cells
Assay: Metalloprotease selectivity panel (Eurofins Panlabs): neprilysin
Format: biochemical
Conditions: assay validation, read-out: IC50 of reference inhibitor
Description: Supplementary Table S1. […] Reference compounds were used to validate the assay for inhibition.

T1 sequence (P08473 whole entry): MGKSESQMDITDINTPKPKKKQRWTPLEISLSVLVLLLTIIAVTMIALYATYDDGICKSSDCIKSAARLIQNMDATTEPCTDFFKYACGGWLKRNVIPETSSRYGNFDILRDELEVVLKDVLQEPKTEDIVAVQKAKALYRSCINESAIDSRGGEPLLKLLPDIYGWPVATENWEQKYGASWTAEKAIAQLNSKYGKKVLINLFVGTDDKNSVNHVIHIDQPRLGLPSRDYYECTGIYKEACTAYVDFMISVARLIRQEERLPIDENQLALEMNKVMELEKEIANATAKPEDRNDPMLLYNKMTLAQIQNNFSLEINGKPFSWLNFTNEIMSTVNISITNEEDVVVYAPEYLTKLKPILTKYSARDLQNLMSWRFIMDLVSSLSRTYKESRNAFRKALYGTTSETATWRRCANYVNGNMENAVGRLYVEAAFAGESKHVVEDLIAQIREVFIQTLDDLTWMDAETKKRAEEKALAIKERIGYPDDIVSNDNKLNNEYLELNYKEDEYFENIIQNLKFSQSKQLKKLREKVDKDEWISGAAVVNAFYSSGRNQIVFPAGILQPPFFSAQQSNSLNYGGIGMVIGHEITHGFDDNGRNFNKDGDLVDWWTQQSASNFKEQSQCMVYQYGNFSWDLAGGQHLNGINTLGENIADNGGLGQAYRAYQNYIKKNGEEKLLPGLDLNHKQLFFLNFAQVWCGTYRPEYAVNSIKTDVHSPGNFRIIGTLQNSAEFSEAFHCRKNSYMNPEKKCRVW

CC(C)C[C@H](NP(=O)(O)O[C@@H]1O[C@@H](C)[C@H](O)[C@@H](O)[C@H]1O)C(=O)N[C@@H](Cc1c[nH]c2ccccc12)C(=O)O [Phosphoramidon]
IC50: 1.99 nM
